{"source": "ChEMBL document CHEMBL6115000", "about": "“Discovery of a first-in-class PROTAC degrader of histone lysine demethylase KDM4” (Eur J Med Chem, 2025)", "key": {"[1]": {"target": "T1, von Hippel-Lindau disease tumor suppressor/Lysine-specific demethylase 4A (Homo sapiens, UniProt O75164+P40337)", "test": "PROTAC activity at VHL/KDM4A in human KYSE-150 cells assessed as induction of KDM4A degradation measured after 24 hrs by Western blot analysis", "type": "cell-based"}, "[2]": {"test": "Induction of apoptosis in human KYSE-150 cells assessed as early apoptotic cells at 1000 nM incubated for 72 hrs by Annexin V-PE/7-AAD staining based flow cytometry (reference value: 5.27 %)", "type": "functional"}, "[3]": {"test": "Induction of apoptosis in human KYSE-150 cells assessed as necrotic cells at 333.3 nM incubated for 72 hrs by Annexin V-PE/7-AAD staining based flow cytometry (reference value: 4.28 %)", "type": "functional"}, "[4]": {"target": "T1, von Hippel-Lindau disease tumor suppressor/Lysine-specific demethylase 4A", "test": "PROTAC activity at VHL/KDM4A in human KYSE-150 cells assessed as induction of KDM4A degradation at 50 nM incubated for 24 hrs in presence of Ac-VHL-Me by Western blot analysis", "type": "cell-based", "settings": "KYSE-150 cell line"}, "[5]": {"target": "T1, von Hippel-Lindau disease tumor suppressor/Lysine-specific demethylase 4A", "test": "PROTAC activity at VHL/KDM4A in human KYSE-150 cells assessed as induction of KDM4A degradation at 50 nM incubated for 24 hrs in presence of bortezomib by Western blot analysis", "type": "cell-based", "settings": "KYSE-150 cell line"}, "[6]": {"test": "Induction of apoptosis in human KYSE-150 cells assessed as early apoptotic cells at 111.1 nM incubated for 72 hrs by Annexin V-PE/7-AAD staining based flow cytometry (reference value: 5.27 %)", "type": "functional"}, "[7]": {"test": "Induction of cell cycle arrest in human KYSE-150 cells assessed as accumulation of cells at G2/M phase at 12.3 nM incubated for 24 hrs by flow cytometry (reference value: 21.64 %)", "type": "functional"}, "[8]": {"test": "Induction of apoptosis in human KYSE-150 cells assessed as early apoptotic cells at 333.3 nM incubated for 72 hrs by Annexin V-PE/7-AAD staining based flow cytometry (reference value: 5.27 %)", "type": "functional"}, "[9]": {"test": "Induction of apoptosis in human KYSE-150 cells assessed as necrotic cells at 1000 nM incubated for 72 hrs by Annexin V-PE/7-AAD staining based flow cytometry (reference value: 4.28 %)", "type": "functional"}, "[10]": {"test": "Induction of cell cycle arrest in human KYSE-150 cells assessed as accumulation of cells at S pahse at 12.3 nM incubated for 24 hrs by flow cytometry (reference value: 13.15 %)", "type": "functional"}, "[11]": {"target": "von Hippel-Lindau disease tumor suppressor/Lysine-specific demethylase 4C (Homo sapiens, UniProt Q9H3R0+P40337)", "test": "PROTAC activity at VHL/KDM4C in human KYSE-150 cells assessed as induction of KDM4C degradation measured after 24 hrs by Western blot analysis", "type": "cell-based"}, "[12]": {"target": "von Hippel-Lindau disease tumor suppressor/Lysine-specific demethylase 4D (Homo sapiens, UniProt Q6B0I6+P40337)", "sequence (Q6B0I6 whole entry)": "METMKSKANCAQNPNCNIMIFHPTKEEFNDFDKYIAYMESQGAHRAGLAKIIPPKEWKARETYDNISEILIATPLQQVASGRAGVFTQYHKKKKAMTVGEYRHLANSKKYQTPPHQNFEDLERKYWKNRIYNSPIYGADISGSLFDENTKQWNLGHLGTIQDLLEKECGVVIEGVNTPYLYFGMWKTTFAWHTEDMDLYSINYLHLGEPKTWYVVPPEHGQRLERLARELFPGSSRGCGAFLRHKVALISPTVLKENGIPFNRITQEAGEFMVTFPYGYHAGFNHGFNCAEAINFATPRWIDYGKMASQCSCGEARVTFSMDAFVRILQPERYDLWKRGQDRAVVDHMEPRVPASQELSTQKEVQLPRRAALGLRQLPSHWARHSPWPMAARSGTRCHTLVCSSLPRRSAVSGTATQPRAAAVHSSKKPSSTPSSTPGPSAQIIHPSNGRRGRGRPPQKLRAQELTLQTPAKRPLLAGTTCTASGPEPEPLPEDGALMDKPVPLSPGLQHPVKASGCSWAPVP", "sequence (P40337 whole entry)": "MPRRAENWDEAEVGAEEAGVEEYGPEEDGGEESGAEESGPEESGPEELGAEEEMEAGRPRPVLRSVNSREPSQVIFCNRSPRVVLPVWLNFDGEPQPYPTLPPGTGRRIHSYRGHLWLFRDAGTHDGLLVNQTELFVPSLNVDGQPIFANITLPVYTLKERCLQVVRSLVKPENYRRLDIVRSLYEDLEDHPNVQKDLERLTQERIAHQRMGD", "test": "PROTAC activity at VHL/KDM4D in human KYSE-150 cells assessed as induction of KDM4D degradation measured after 24 hrs by Western blot analysis", "type": "cell-based", "settings": "kyse-150 cell line"}, "[13]": {"test": "Induction of apoptosis in human KYSE-150 cells assessed as viable cells at 333.3 nM incubated for 72 hrs by Annexin V-PE/7-AAD staining based flow cytometry (reference value: 84.47 %)", "type": "functional", "settings": "read-out: Activity"}, "[14]": {"test": "Induction of cell cycle arrest in human KYSE-150 cells assessed as accumulation of cells at G0/G1 phase at 111.1 nM incubated for 24 hrs by flow cytometry (reference value: 65.08 %)", "type": "functional"}, "[15]": {"test": "Induction of apoptosis in human KYSE-150 cells assessed as necrotic cells at 37 nM incubated for 72 hrs by Annexin V-PE/7-AAD staining based flow cytometry (reference value: 4.28 %)", "type": "functional"}, "[16]": {"target": "T2, von Hippel-Lindau disease tumor suppressor/Lysine-specific demethylase 4B (Homo sapiens, UniProt P40337+O94953)", "test": "PROTAC activity at VHL/KDM4B in human KYSE-150 cells assessed as induction of KDM4B degradation upto 1000 nM measured after 24 hrs by Western blot analysis relative to control", "type": "cell-based", "settings": "KYSE-150 cell line"}, "[17]": {"test": "Induction of cell cycle arrest in human KYSE-150 cells assessed as accumulation of cells at G0/G1 phase at 12.3 nM incubated for 24 hrs by flow cytometry (reference value: 65.08 %)", "type": "functional"}, "[18]": {"test": "Induction of apoptosis in human KYSE-150 cells assessed as early apoptotic cells at 37 nM incubated for 72 hrs by Annexin V-PE/7-AAD staining based flow cytometry (reference value: 5.27 %)", "type": "functional"}, "[19]": {"test": "Induction of cell cycle arrest in human KYSE-150 cells assessed as accumulation of cells at G0/G1 phase at 1000 nM incubated for 24 hrs by flow cytometry (reference value: 65.08 %)", "type": "functional"}, "[20]": {"target": "T2, von Hippel-Lindau disease tumor suppressor/Lysine-specific demethylase 4B", "test": "PROTAC activity at VHL/KDM4B in human KYSE-150 cells assessed as induction of KDM4B degradation measured after 24 hrs by Western blot analysis", "type": "cell-based"}, "[21]": {"test": "Induction of apoptosis in human KYSE-150 cells assessed as late apoptotic cells at 111.1 nM incubated for 72 hrs by Annexin V-PE/7-AAD staining based flow cytometry (reference value: 5.98 %)", "type": "functional"}, "[22]": {"test": "Induction of apoptosis in human KYSE-150 cells assessed as late apoptotic cells at 12.3 nM incubated for 72 hrs by Annexin V-PE/7-AAD staining based flow cytometry (reference value: 5.98 %)", "type": "functional"}, "[23]": {"target": "T1, von Hippel-Lindau disease tumor suppressor/Lysine-specific demethylase 4A", "test": "PROTAC activity at VHL/KDM4A in human KYSE-150 cells assessed as increase in KDM4A ubiquitination at 50 nM incubated for 24 hrs by Western blot analysis", "type": "cell-based", "settings": "KYSE-150 cell line"}, "[24]": {"target": "T1, von Hippel-Lindau disease tumor suppressor/Lysine-specific demethylase 4A", "test": "PROTAC activity at VHL/KDM4A in human KYSE-150 cells assessed as induction of KDM4A degradation at 500 nM measured for 8 to 36 hrs by Western blot analysis", "type": "cell-based", "settings": "KYSE-150 cell line, time 8-36 hrs"}}, "note": "Calls of active or inactive are those of the source. No cut-off for these calls is given here."}
{"smiles": "Cc1ncsc1-c1ccc([C@H](C)NC(=O)[C@@H]2C[C@@H](O)CN2C(=O)[C@@H](NC(=O)CCCCCCCCCOc2ccc(N(C)c3ccc4c(c3)OCC[C@H]4CNc3cnccc3C(=O)O)cc2)C(C)(C)C)cc1", "values": [{"measurement": "Activity", "setting": "[1]; KYSE-150 cell line", "value": "Dose-dependent-effect"}, {"measurement": "DC50", "setting": "[1]; kyse-150 cell line", "value": 37.5, "unit": "nM"}, {"measurement": "Activity", "setting": "[2]", "value": 29.18, "unit": "%"}, {"measurement": "Activity", "setting": "[3]", "value": 4.83, "unit": "%"}, {"measurement": "Activity", "setting": "[4]", "value": "inactive"}, {"measurement": "Activity", "setting": "[5]", "value": "inactive"}, {"measurement": "Activity", "setting": "[6]", "value": 22.13, "unit": "%"}, {"measurement": "Activity", "setting": "[7]", "value": 16.31, "unit": "%"}, {"measurement": "Activity", "setting": "[8]", "value": 26.6, "unit": "%"}, {"measurement": "Activity", "setting": "[9]", "value": 5.01, "unit": "%"}, {"measurement": "Activity", "setting": "[10]", "value": 14.42, "unit": "%"}, {"measurement": "Activity", "setting": "[11]; KYSE-150 cell line", "value": "Dose-dependent-effect"}, {"measurement": "DC50", "setting": "[11]; kyse-150 cell line", "value": 49.4, "unit": "nM"}, {"measurement": "DC50", "setting": "[12]", "value": "> 1000", "unit": "nM"}, {"measurement": "viability at 0.3333 µM", "setting": "[13]", "value": 19.5, "unit": "%"}, {"measurement": "Activity", "setting": "[14]", "value": 73.05, "unit": "%"}, {"measurement": "Activity", "setting": "[15]", "value": 7.7, "unit": "%"}, {"measurement": "Emax", "setting": "[16]", "value": 73.1, "unit": "%"}, {"measurement": "Activity", "setting": "[17]", "value": 69.11, "unit": "%"}, {"measurement": "Activity", "setting": "[18]", "value": 18.22, "unit": "%"}, {"measurement": "Activity", "setting": "[19]", "value": 74.74, "unit": "%"}, {"measurement": "Activity", "setting": "[20]; KYSE-150 cell line", "value": "Dose-dependent-effect"}, {"measurement": "DC50", "setting": "[20]; kyse-150 cell line", "value": 39.9, "unit": "nM"}, {"measurement": "Activity", "setting": "[21]", "value": 54.12, "unit": "%"}, {"measurement": "Activity", "setting": "[22]", "value": 18.97, "unit": "%"}, {"measurement": "Activity", "setting": "[23]", "value": "Active"}, {"measurement": "Activity", "setting": "[24]", "value": "Active"}]}
